In patent publication US20260262647A1, “Synergistic Compositions Containing Guanidine” (Thor GmbH, priority 2023, published 2026):
Values joined by “and” are separate entries in the source; they are usually repeats but may differ in a detail not shown here. Identical values can stand only once.

Assays:
Type in all cases: cell-based
[1] = test system: Pseudomonas spec. DSM 115322; test: Minimum inhibitory concentrations and synergy index in Müller-Hinton broth; conditions: for QA: Concentration of guanidine as the sole agent that shows an endpoint: guanidine (added as guanidine hydrochloride) alone, 48 hours at 30° C.
bacteria mixture A = test: Emulsion paint inoculated three times with bacteria mixture A, live bacteria count CFU/g; conditions: for CFU/g after inoculation: emulsion paint, 7 d
Text: In example 34, the synergistic interaction between guanidine and a zinc compound (zinc oxide) with respect to microbial infestation was examined in an emulsion paint by adding particular amounts of guanidine in the form of guanidine hydrochloride and a zinc compound in the form of zinc oxide, and tested for stability to microbial infestation. The paint tested was an emulsion paint based on styrene-acrylate binder (PVK 77%, pH 8.8) for indoor use, produced in the laboratory, without addition of the usual preservatives.
The samples were inoculated repeatedly, three times in total, with a bacterial cell suspension of the following composition (2% v/w).
• Alcaligenes faecalis NCIMB 13145 • Escherichia coli DSM 13631 • Burkholderia cepacia DSM 9241 • Staphylococcus aureus DSM 799 • Pseudomonas aeruginosa DSM 50071 • Pseudomonas putida DSM 13624
The cell suspension of the bacteria mixture A was produced by growing the individual bacteria at 30° C. for 24 h in liquid culture on a shaker. The growth medium used for the bacteria was Müller-Hinton liquid medium. After growing, the individual liquid cultures were centrifuged, and the cells were resuspended in physiological saline solution. In order to adjust the mixture to a total cell count of 10^9/ml, the individual bacteria suspensions, if necessary, were diluted accordingly before being combined with saline solution. The cell count of the inoculum was determined in each case by chamber counting.
After each inoculation and after incubation at 30° C. for 7 days, microbial infestation was evaluated in the samples by determining the live bacteria count per g of paint (colony-forming units, CFU/g). The CFU/g was determined each time by taking an aliquot (1 g) from the previously homogenized sample and running a serial decadic dilution series in physiological saline solution (0.9% NaCl) by streaking on tryptic soy agar, followed by incubation of the agar plates at 30° C. for 48 h.

yeast mixture = test: Laundry detergent inoculated once with yeast mixture, semiquantitative growth evaluation; parameters: key: 0: No growth; Minimal growth, 1 to 10 colonies visible over the entire streak; 2: Light growth, maximum 100 colonies; Moderate growth, maximum 300 to 400 colonies; Uniform growth, >400 colonies, single colonies still clearly recognizable; 5: Heavy growth, too many colonies to count, but no growth over the entire streak; 6: Full growth, barely any single colonies still apparent, growth over the entire streak; conditions: Example 37, laundry detergent, +8000 ppm guanidine hydrochloride (4944 ppm guanidine)
Text: In examples 35 to 38 below, synergistic interaction between guanidine and antimicrobial substances with respect to microbial infestation was studied using an emulsion paint and a laundry detergent or cleaning composition by adding particular amounts of guanidine salts and isothiazolinones and examining their stability against microbial infestation: […] The laundry detergent was a heavy-duty laundry detergent without preservatives (pH 8.1), and the cleaning composition was an all-purpose detergent without preservatives (pH 7.6), each likewise made in the laboratory, without addition of the otherwise usual conventional preservatives. To each paint was added—individually and in combination—particular concentrations of guanidinium hydrochloride, benzisothiazolinone (BIT), and a mixture of chloromethylisothiazolinone (CIT) and methylisothiazolinone (MIT). The laundry detergent and the cleaning composition were admixed with particular concentrations of guanidinium hydrochloride and benzisothiazolinone (BIT). The resultant batches of the paint thus prepared were inoculated with a mixture of different bacteria species (bacteria mixture B); the batches of the laundry detergent and cleaning compositions thus prepared were inoculated with a yeast mixture. • Pichia manshurica DSM 12249 • Rhodotorula mucilaginosa DSM 12248 • Candida boidinii DSM 13622 • Candida albicans DSM 1386 […] Further steps for establishment of a cell count of the inoculum suspension of 10^8/ml were effected analogously to the production of the bacteria suspension. […] The streaked agar plates were then incubated at 30° C. for 48 hours (bacteria) or at 25° C. for 72 hours (yeasts). After incubation, the bacterial or yeast colonies that have grown on the agar plates were visually evaluated and quantified according to the following scheme: [table]

SMILES: N=C(N)N [guanidine]
- QA: Concentration of guanidine as the sole agent that shows an endpoint ([1]; MHB adjusted to pH 5.5): 12359 ppm
- QA: Concentration of guanidine as the sole agent that shows an endpoint ([1]; MHB): 9269 ppm and 9105 ppm
- Synergy index Qa/QA + Qb/QB ([1]; guanidine and AEPD): 1.00
- Synergy index Qa/QA + Qb/QB ([1]; guanidine and AMP): 1.00
- Synergy index Qa/QA + Qb/QB ([1]; guanidine and BBIT): 1.00
- Synergy index Qa/QA + Qb/QB ([1]; guanidine and BIT): 1.00
- Synergy index Qa/QA + Qb/QB ([1]; guanidine and DBDCB): 1.00
- Synergy index Qa/QA + Qb/QB ([1]; guanidine and DBNPA): 1.00
- Synergy index Qa/QA + Qb/QB ([1]; guanidine and EDTA): 1.00
- Synergy index Qa/QA + Qb/QB ([1]; guanidine and EHG): 1.00
- Synergy index Qa/QA + Qb/QB ([1]; guanidine and HEDP): 1.00
- Synergy index Qa/QA + Qb/QB ([1]; guanidine and IPBC): 1.00
- Synergy index Qa/QA + Qb/QB ([1]; guanidine and MBIT): 1.00
- Synergy index Qa/QA + Qb/QB ([1]; guanidine and MEA): 1.00
- Synergy index Qa/QA + Qb/QB ([1]; guanidine and MIT): 1.00
- Synergy index Qa/QA + Qb/QB ([1]; guanidine and OIT): 1.00
- Synergy index Qa/QA + Qb/QB ([1]; guanidine and benzoic acid, pH 5.5): 1.00
- Synergy index Qa/QA + Qb/QB ([1]; guanidine and benzyl alcohol): 1.00
- Synergy index Qa/QA + Qb/QB ([1]; guanidine and bronopol): 1.00
- Synergy index Qa/QA + Qb/QB ([1]; guanidine and citric acid, pH 5.5): 1.00
- Synergy index Qa/QA + Qb/QB ([1]; guanidine and heptane-1,2-diol): 1.00
- Synergy index Qa/QA + Qb/QB ([1]; guanidine and hexane-1,2-diol): 1.00
- Synergy index Qa/QA + Qb/QB ([1]; guanidine and hexylglycerol): 1.00
- Synergy index Qa/QA + Qb/QB ([1]; guanidine and isopropanol): 1.00
- Synergy index Qa/QA + Qb/QB ([1]; guanidine and lactic acid, pH 5.5): 1.00
- Synergy index Qa/QA + Qb/QB ([1]; guanidine and oPP): 1.00
- Synergy index Qa/QA + Qb/QB ([1]; guanidine and octane-1,2-diol): 1.00
- Synergy index Qa/QA + Qb/QB ([1]; guanidine and pentane-1,2-diol): 1.00
- Synergy index Qa/QA + Qb/QB ([1]; guanidine and phenethyl alcohol): 1.00
- Synergy index Qa/QA + Qb/QB ([1]; guanidine and phenoxyethanol): 1.00
- Synergy index Qa/QA + Qb/QB ([1]; guanidine and phenylpropanol): 1.00
- Synergy index Qa/QA + Qb/QB ([1]; guanidine and pyrithione): 1.00
- Synergy index Qa/QA + Qb/QB ([1]; guanidine and salicylic acid, pH 5.5): 1.00
- Synergy index Qa/QA + Qb/QB ([1]; guanidine and sorbic acid, pH 5.5): 1.00
- CFU/g after inoculation (bacteria mixture A; Guanidine hydrochloride 1000 ppm (618 ppm guanidine), 1. inoculation): 8.7 × 10^5 CFU/g
- CFU/g after inoculation (bacteria mixture A; Guanidine hydrochloride 1000 ppm (618 ppm guanidine), 2. inoculation): >10^6 CFU/g
- CFU/g after inoculation (bacteria mixture A; Guanidine hydrochloride 1000 ppm (618 ppm guanidine), 3. inoculation): >10^6 CFU/g
- CFU/g after inoculation (bacteria mixture A; Guanidine hydrochloride 2500 ppm (1545 ppm guanidine), 1. inoculation): <100 CFU/g
- CFU/g after inoculation (bacteria mixture A; Guanidine hydrochloride 2500 ppm (1545 ppm guanidine), 2. inoculation): <100 CFU/g
- CFU/g after inoculation (bacteria mixture A; Guanidine hydrochloride 2500 ppm (1545 ppm guanidine), 3. inoculation): >10^6 CFU/g
- CFU/g after inoculation (bacteria mixture A; Guanidine hydrochloride 5000 ppm (3090 ppm guanidine), 1. inoculation): <100 CFU/g
- CFU/g after inoculation (bacteria mixture A; Guanidine hydrochloride 5000 ppm (3090 ppm guanidine), 2. inoculation): <100 CFU/g
- CFU/g after inoculation (bacteria mixture A; Guanidine hydrochloride 5000 ppm (3090 ppm guanidine), 3. inoculation): <100 CFU/g
- QA: Concentration of guanidine as the sole agent that shows an endpoint (bacteria mixture A; guanidine alone in emulsion paint, endpoint after 3 inoculations up to a maximum of 1000 CFU/g): 3090 ppm
- Synergy index Qa/QA + Qb/QB (bacteria mixture A; guanidine and zinc in emulsion paint, Qa, Qb): 1.00
- Bacterial growth (yeast mixture; Day 1): 6
- Bacterial growth (yeast mixture; Day 3): 6
